Assay results reported in patent US8435929B2, “1-aminocyclopropane carboxylic acid as a fruit thinner” (Valent BioSciences Corporation, priority 2009, dated 2013).

Assays:
Rose Diamond nectarines = assay: Field thinning study, fruit set of Rose Diamond nectarines; format: in vivo, nectarine; conditions: application at late shuck fall
Fuji apples = assay: Field thinning study, fruit set and fruit weight of Fuji apples; format: in vivo, apple
Excerpt: ACC was foliar applied at the 10 or 20 mm fruit stage. […] Application of 100 ppm ACC was particularly effective in removing fruit when applied at the 20 mm fruit stage.
Similarly, ACC applications at petal fall were not effective for thinning Fuji apples, but later applications (10 and 20 mm) were effective (Table 14).

Babygold #5 peach = assay: Field thinning study, fruit set of Babygold #5 peach; format: in vivo
Method: A series of field studies on stone fruit thinning were performed over several seasons, on different varieties and in various locations to determine the consistency of the thinning effect of ACC. Even without the application of a chemical thinning agent, crop load (number of fruit remaining divided by the number of flowers or fruit prior to application) was variable. Chemical thinning of stone fruit is variable and dependent on many factors including variety and environment. An acceptable chemical thinning agent is one that gives a substantial and relatively consistent reduction in crop load for a given dose over a wide range of trials.
The effect of ACC rate and timing was determined. ACC was sprayed on Babygold #5 peach trees at bloom (Table 1) or shuck split (early fruitlet stage) (Table 2).

O'Henry peaches = assay: Field thinning study, fruit set, fruit weight and crop safety of O'Henry peaches
Chardonnay grapes = assay: Thinning study on Chardonnay grapes (cluster weight, berry weight, berries per rachis, rachis length); format: in vivo, grape; conditions: application at bloom
Excerpt: Application of ACC on grapes during bloom reduced the cluster weight and number of berries/cm rachis (Table 15). However, ACC applications produce the highly undesirable effect of reducing the rachis length and cluster size. Similar results have been seen in trials on other grape varieties in Michigan, California, and Australia.

cotton cotyledons = assay: Cotton cotyledon bioassay, ethylene production; format: in vivo
Excerpt: For laboratory and growth chamber studies, deionized ultra-pure water was used in preparing solutions. Spray solutions were used as soon as possible after mixing. All spray solutions were amended with spray adjuvants as appropriate. A cotton cotyledon bioassay was used in the laboratory to study the effects of ACC or ethephon on induction of ethylene. Ten day old cotton plants with fully expanded cotyledons were used. Sprays were made to the upper (adaxial) surface of the leaves and the plants were then incubated in growth cabinets at the temperatures indicated. The cotyledons were excised at the times indicated and placed in sealed plastic vials. Headspace ethylene samples were measured on a Hewlett Packard 5890 gas chromatograph equipped with a packed Haysep T column (Alltech, Deerfield, Ill.) and a flame ionization detector.
Selected characteristics of ACC conversion to ethylene (i.e. dose response, time course, and temperature effect) were assessed to determine whether the relative consistence of ACC as a stone fruit and apple thinner was related to performance as an ethylene producer. In these bioassays, ACC solutions were applied to cotton cotyledons by a hand sprayer at the doses indicated and all spray solutions contained 0.05% (v/v) L-77.
In the first study, the effect of ACC dose sprays on ethylene produced by cotton cotyledons was determined. (Table 16). Cotton plants were sprayed with solution (ACC at 1, 10, 25, 50, 100, 250, 500, or 1000 ppm) and the cotyledons were excised 6 or 24 h after spraying and incubated in sealed tubes for 4 h. Ethylene levels were determined production was assayed.
In the second study, the time course of ethylene production following application of 500 mg/liter ACC or ethephon was determined (Table 17).
In the third study, the effect of temperature on ethylene production following ACC or ethephon application was determined (Table 18). The incubation of the plants following spraying and the incubation of the detached leaves were performed at 25 and 35° C.

Babygold #5 peaches = assay: Scaffold gummosis rating of Babygold #5 peaches; format: in vivo, peach; conditions: in vivo
Excerpt: Gummosis is a physiological stress response in which sap oozes from fractures in tree bark and often leads to tree decline. Use of 2-chloroethylphosphonic acid as a stone fruit thinning has been limited because it can stimulate severe incidences of gummosis of stone fruit.

[1] = 100 ppm, application timing 10 mm
[2] = 100 ppm, application timing 20 mm
[3] = 300 ppm, application timing 10 mm
[4] = 300 ppm, application timing 20 mm
[5] = 1000 ppm, application timing 10 mm
[6] = 1000 ppm, application timing 20 mm

NC1(C(=O)O)CC1 [ACC, 1-aminocyclopropane carboxylic acid]
Crop load (percent) of treated trees compared to the untreated control (Rose Diamond nectarines; 125 ppm): 88% | Percent fruit set (Rose Diamond nectarines; 125 ppm): 60% | Crop load (percent) of treated trees compared to the untreated control (Rose Diamond nectarines; 250 ppm): 90% | Percent fruit set (Rose Diamond nectarines; 250 ppm): 61% | Crop load (percent) of treated trees compared to the untreated control (Rose Diamond nectarines; 500 ppm): 65% | Percent fruit set (Rose Diamond nectarines; 500 ppm): 44% | Crop load (percent) of treated trees compared to the untreated control (Rose Diamond nectarines; 1000 ppm): 24% | Percent fruit set (Rose Diamond nectarines; 1000 ppm): 16% | Fruit weight (Fuji apples; [1]): 95 g | Fruit/fruit cluster (Fuji apples; [1]): 0.79 | Fruit weight (Fuji apples; [2]): 130 g | Fruit/fruit cluster (Fuji apples; [2]): 0.54 | Fruit weight (Fuji apples; [3]): 117 g | Fruit/fruit cluster (Fuji apples; [3]): 0.66 | Fruit weight (Fuji apples; [4]): 132 g | Fruit/fruit cluster (Fuji apples; [4]): 0.41 | Fruit per fruit cluster (Fuji apples; 500 ppm, timing 10 mm (6-7 mm) (Table 14 trial)): 0.27 | Fruit per fruit cluster (Fuji apples; 500 ppm, timing 20 mm (Table 14 trial)): 0.33 | Fruit per fruit cluster (Fuji apples; 500 ppm, timing petal fall (Table 14 trial)): 0.49 | Fruit weight (Fuji apples; [5]): 157 g | Fruit/fruit cluster (Fuji apples; [5]): 0.28 | Fruit weight (Fuji apples; [6]): 161 g | Fruit/fruit cluster (Fuji apples; [6]): 0.03 | Fruit per fruit cluster (Fuji apples; 1000 ppm, timing 10 mm (6-7 mm) (Table 14 trial)): 0.10 | Fruit per fruit cluster (Fuji apples; 1000 ppm, timing petal fall (Table 14 trial)): 0.39 | Thinning of Fuji apples (in words) (Fuji apples; applications at petal fall): not effective | Crop load (percent) of treated trees compared to the water control (Babygold #5 peach; 100 ppm, application at bloom): 90% | Crop load (percent) of treated trees compared to the water control (Babygold #5 peach; 100 ppm, application at shuck split, 0.05% Regulaid adjuvant): 102% | Crop load (percent) of treated trees compared to the water control (Babygold #5 peach; 300 ppm, application at bloom): 77% | Percent fruit set (Babygold #5 peach; 300 ppm, application at bloom): 57% | Percent fruit set (Babygold #5 peach; 300 ppm, application at shuck split, 0.05% Regulaid adjuvant): 61% | Crop load (percent) of treated trees compared to the water control (Babygold #5 peach; 1000 ppm, application at bloom): 40% | Percent fruit set (Babygold #5 peach; 1000 ppm, application at bloom): 30% | Percent fruit set (Babygold #5 peach; 1000 ppm, application at shuck split, 0.05% Regulaid adjuvant): 11% | Crop load (percent) of treated trees compared to the untreated control (O'Henry peaches; 500 ppm at 15 mm fruit stage): 38% | Crop safety on vegetation (0-4 scale) (O'Henry peaches; 500 ppm at 15 mm fruit stage): 0.7 0-4 scale | Fruit weight at maturity (O'Henry peaches; 500 ppm at 15 mm fruit stage): 185 g | Percent fruit set (O'Henry peaches; 500 ppm at 15 mm fruit stage): 16% | Crop load (percent) of treated trees compared to the untreated control (O'Henry peaches; 500 ppm at petal fall): 79% | Crop safety on vegetation (0-4 scale) (O'Henry peaches; 500 ppm at petal fall): 0 0-4 scale | Fruit weight at maturity (O'Henry peaches; 500 ppm at petal fall): 200 g | Percent fruit set (O'Henry peaches; 500 ppm at petal fall): 23% | Crop load (percent) of treated trees compared to the untreated control (O'Henry peaches; 750 ppm at 15 mm fruit stage): 21% | Crop safety on vegetation (0-4 scale) (O'Henry peaches; 750 ppm at 15 mm fruit stage): 2.1 0-4 scale | Fruit weight at maturity (O'Henry peaches; 750 ppm at 15 mm fruit stage): 235 g | Percent fruit set (O'Henry peaches; 750 ppm at 15 mm fruit stage): 6% | Crop load (percent) of treated trees compared to the untreated control (O'Henry peaches; 750 ppm at petal fall): 55% | Crop safety on vegetation (0-4 scale) (O'Henry peaches; 750 ppm at petal fall): 0.5 0-4 scale | Fruit weight at maturity (O'Henry peaches; 750 ppm at petal fall): 205 g | Percent fruit set (O'Henry peaches; 750 ppm at petal fall): 11% | Berries per cm rachis (Chardonnay grapes; 100 ppm): 3.1 | Berry weight (Chardonnay grapes; 100 ppm): 1.2 g | Cluster weight (Chardonnay grapes; 100 ppm): 128 g | Rachis length (cm) (Chardonnay grapes; 100 ppm): 34 cm | Berries per cm rachis (Chardonnay grapes; 300 ppm): 2.9 | Berry weight (Chardonnay grapes; 300 ppm): 1.2 g | Cluster weight (Chardonnay grapes; 300 ppm): 78 g | Rachis length (cm) (Chardonnay grapes; 300 ppm): 23 cm | Berries per cm rachis (Chardonnay grapes; 1000 ppm): 1.6 | Berry weight (Chardonnay grapes; 1000 ppm): 1.1 g | Cluster weight (Chardonnay grapes; 1000 ppm): 24 g | Rachis length (cm) (Chardonnay grapes; 1000 ppm): 14 cm | Ethylene production (cotton cotyledons; 10 ppm, 6 h after spraying, 25 C): 4.2 nl/g leaf weight/h incubated | Ethylene production (cotton cotyledons; 10 ppm, 24 h after spraying, 25 C): 13.7 nl/g leaf weight/h incubated | Ethylene production (cotton cotyledons; 25 ppm, 6 h after spraying, 25 C): 5.9 nl/g leaf weight/h incubated | Ethylene production (cotton cotyledons; 25 ppm, 24 h after spraying, 25 C): 22.8 nl/g leaf weight/h incubated | Ethylene production (cotton cotyledons; 50 ppm, 6 h after spraying, 25 C): 8.3 nl/g leaf weight/h incubated | Ethylene production (cotton cotyledons; 50 ppm, 24 h after spraying, 25 C): 32.4 nl/g leaf weight/h incubated | Ethylene production (cotton cotyledons; 100 ppm, 6 h after spraying, 25 C): 11.8 nl/g leaf weight/h incubated | Ethylene production (cotton cotyledons; 100 ppm, 24 h after spraying, 25 C): 45.2 nl/g leaf weight/h incubated | Ethylene production (cotton cotyledons; 200 ppm, 24 h after application, incubated at 25 C): 35.7 nl/g leaf weight/h incubated | Ethylene production (cotton cotyledons; 200 ppm, 24 h after application, incubated at 35 C): 19.9 nl/g leaf weight/h incubated | Ethylene production (cotton cotyledons; 250 ppm, 6 h after spraying, 25 C): 19.4 nl/g leaf weight/h incubated | Ethylene production (cotton cotyledons; 250 ppm, 24 h after spraying, 25 C): 59.8 nl/g leaf weight/h incubated | Ethylene production (cotton cotyledons; 500 ppm, 1 h following spray application, 25 C (time course)): 62.8 nl/g leaf weight/h incubated | Ethylene production (cotton cotyledons; 500 ppm, 4 h following spray application, 25 C (time course)): 36.7 nl/g leaf weight/h incubated | Ethylene production (cotton cotyledons; 500 ppm, 6 h after spraying, 25 C): 22.8 nl/g leaf weight/h incubated | Ethylene production (cotton cotyledons; 500 ppm, 15 h following spray application, 25 C (time course)): 45.7 nl/g leaf weight/h incubated | Ethylene production (cotton cotyledons; 500 ppm, 24 h after spraying, 25 C): 64.4 nl/g leaf weight/h incubated | Ethylene production (cotton cotyledons; 500 ppm, 24 h following spray application, 25 C (time course)): 49.3 nl/g leaf weight/h incubated | Ethylene production (cotton cotyledons; 500 ppm, 48 h following spray application, 25 C (time course)): 45.3 nl/g leaf weight/h incubated | Ethylene production (cotton cotyledons; 1000 ppm, 6 h after spraying, 25 C): 25.1 nl/g leaf weight/h incubated | Ethylene production (cotton cotyledons; 1000 ppm, 24 h after spraying, 25 C): 92.1 nl/g leaf weight/h incubated | Gummosis (in words) (Babygold #5 peaches): little gummosis
